Here are results for 18 molecules from publication PMC11171933, “Rapid Determination of Kinetic Constants for Slow-Binding Inhibitors and Inactivators of Human Histone Deacetylase 8” (International Journal of Molecular Sciences, 2024).

Data set [1] has as its target T1, CYP3A4 (Homo sapiens, UniProt P08684). In words: Inactivation kinetics of CYP3A4 (literature data and reanalysis).
Protocol: (§1) Firstly, the remaining enzyme activities were extracted from the data sets for all inactivator concentrations and plotted against the respective preincubation times used. Secondly, the resulting decay curves for different inactivator concentrations were fitted to mono-exponential functions, thus yielding observed inactivation rates kobs for all inactivator concentrations.
The target of another data set is T2, human HDAC8 (Homo sapiens, UniProt Q9BY41).
T2 sequence (Q9BY41 1-377): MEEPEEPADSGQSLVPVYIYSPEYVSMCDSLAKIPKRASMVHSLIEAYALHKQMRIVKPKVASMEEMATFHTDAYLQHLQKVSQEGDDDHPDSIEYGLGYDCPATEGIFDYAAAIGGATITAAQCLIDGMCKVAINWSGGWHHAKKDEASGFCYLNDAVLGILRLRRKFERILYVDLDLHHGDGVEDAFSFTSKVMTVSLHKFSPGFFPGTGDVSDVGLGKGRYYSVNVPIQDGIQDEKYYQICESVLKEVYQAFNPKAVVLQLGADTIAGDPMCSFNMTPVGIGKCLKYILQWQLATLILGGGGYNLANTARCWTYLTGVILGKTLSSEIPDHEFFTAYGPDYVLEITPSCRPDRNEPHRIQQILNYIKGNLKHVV
In words: Time-dependent fluorometric HDAC8 enzyme activity assay (dose-response curves after different pre-incubation times). The settings on record: for Binding / inhibition mechanism classification: from time-dependent dose-response curves and kobs vs [I] plot; for kinact: read-out: kinact (min^−1); for kinact/KI: read-out: kinact/KI (M^−1s^−1).

Data set [2] has as its target T3, CYP2C8 (Homo sapiens, UniProt P10632).
T3 sequence (P10632 1-490): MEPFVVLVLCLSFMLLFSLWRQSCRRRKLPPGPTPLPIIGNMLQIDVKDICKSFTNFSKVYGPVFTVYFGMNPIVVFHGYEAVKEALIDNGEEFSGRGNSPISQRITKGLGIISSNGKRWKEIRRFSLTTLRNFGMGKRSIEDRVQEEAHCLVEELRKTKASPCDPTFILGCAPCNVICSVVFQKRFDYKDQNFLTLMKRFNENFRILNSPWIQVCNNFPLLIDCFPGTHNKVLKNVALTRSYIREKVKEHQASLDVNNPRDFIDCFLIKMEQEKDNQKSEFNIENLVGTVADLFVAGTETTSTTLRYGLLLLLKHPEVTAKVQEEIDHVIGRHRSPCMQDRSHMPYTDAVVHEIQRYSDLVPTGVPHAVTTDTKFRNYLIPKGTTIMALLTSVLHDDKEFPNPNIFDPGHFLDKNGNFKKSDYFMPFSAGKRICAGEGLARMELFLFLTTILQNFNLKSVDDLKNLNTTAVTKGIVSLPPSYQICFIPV
Nature of the data set: Inactivation kinetics of CYP2C8 (literature data and reanalysis).
Protocol: as §1

The target in data set [3] is T1, CYP3A4. The note with it: CYP3A4 inactivation ref 38, cited from earlier work.
On the set-up of data set [4]: method as in PMID 5970483. The settings on record: pH 8 ref 48; cited from earlier work.
On the set-up of data set [5]: method as in PMID 5970483. The settings on record: pH of 7.0 ref 48; cited from earlier work.
The target in data set [6] is T3, CYP2C8. The settings on record: CYP2C8 inactivation ref 36, cited from earlier work.
Data set [7] relates to HDAC8. The settings on record: read-out: IC50 (µM) (Lit.), cited from earlier work.
Data set [8] addresses HDAC8. The arrangement: method as in PMID 24882269. The note with it: binding affinity to HDAC8 ref 41; cited from earlier work.
Another data set has as its system HIV protease. On the set-up: method as in PMID 17928344. The settings on record: HIV protease ref 18; cited from earlier work.

Molecules are shown by their SMILES. Entries after “also recorded” stand apart in the source; their conditions may differ. Read-outs that look alike come from different tables or passages of the source.

T1 sequence (P08684 2-503): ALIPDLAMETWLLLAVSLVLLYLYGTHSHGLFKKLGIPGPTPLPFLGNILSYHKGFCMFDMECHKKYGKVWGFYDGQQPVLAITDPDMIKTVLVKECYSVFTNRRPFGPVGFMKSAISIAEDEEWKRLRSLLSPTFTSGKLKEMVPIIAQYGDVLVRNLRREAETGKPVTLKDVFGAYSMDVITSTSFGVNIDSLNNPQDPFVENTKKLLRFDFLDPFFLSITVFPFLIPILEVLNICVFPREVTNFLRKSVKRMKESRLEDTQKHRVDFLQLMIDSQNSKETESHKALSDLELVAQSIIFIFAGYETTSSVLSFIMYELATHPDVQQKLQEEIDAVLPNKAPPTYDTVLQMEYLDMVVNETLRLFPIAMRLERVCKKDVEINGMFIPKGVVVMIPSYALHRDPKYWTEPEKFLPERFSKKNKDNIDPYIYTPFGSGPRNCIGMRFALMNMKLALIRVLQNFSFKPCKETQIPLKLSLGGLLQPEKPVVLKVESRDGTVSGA
Protocol for human HDAC8: HDAC8 activity was determined using a fluorometric assay, as previously described [44]. […] The enzyme reaction was initiated by adding 20 μM of the substrate Boc-Lys(TFA)-AMC (Bachem, Bubendorf, Switzerland). […] The measurements were carried out using a fluorescence microplate reader (PHERAstar FS, BMG LABTECH, Ortenberg, Germany) with fluorescence excitation at 360 nm and emission at 460 nm. IC50 values were calculated using GraphPad Prism 9 by generating dose–response curves and fitting them to a 4-parameter fit model [50]. The results represent the mean ± SD of three independent experiments.
The binding constant Ki for the 1-step binding mechanism in Equation (5) was calculated as follows:(5) Ki=koff/kon
A plot of kobs versus inhibitor or inactivator concentration ([I]) allows distinguishing between 1-step or 2-step behavior: a straight line indicates 1-step, and a saturation curve indicates a 2-step mechanism. Kinetic parameters were obtained from fitting kobs vs. [I] data to the following functions for the indicated mechanism:
Reversible 1-step binding (see Equation (1)):(8) kobs=kon[I]+koff where kon and koff are association and dissociation rate constants, respectively.
Reversible 2-step binding (see Equation (2)):(9) kobs=k−r+kr/1+IC50/[I] where kr and k−r are forward and reverse isomerization rate constants of the second step.
Irreversible 1-step inactivation (see Equation (3)):(10) kobs=kinact/KI[I] where kinact is the inactivation rate, KI is [I], and kinact is the half-maximum.
Irreversible 2-step inactivation (see Equation (4)):(11) kobs=kinact[I]/KI +[I]

The term kinact denotes the maximal first-order rate at which the target is inactivated. On to `CC(C)=CCC/C(C)=C/COc1c2ccoc2cc2oc(=O)ccc12` [Bergamottin], for which, at CYP3A4 [1] (human), the Ki came to 12 ± 5 µM and the kinact is 0.0065 s⁻¹.

The IC50 is the concentration needed to halve the response being measured. Take `O=c1c2ccccc2[se]n1-c1ccccc1` [Ebselen, reference compound]: at human HDAC8, the IC50 came to 80 ± 30 nM, the “Binding / inhibition mechanism classification” value was “rapidly inactivated HDAC8; also recorded: fast covalent inactivators” and the inactivation rate constant (kinact) is above 2 min⁻¹.

With `C#C[C@]1(O)CC[C@H]2[C@@H]3CCc4cc(O)ccc4[C@H]3CC[C@@]21C` [Ethynyl-estradiol, reference compound], on CYP3A4 [1] (human), the Ki is 5.4 ± 2.5 µM.

In the case of `NNC(=O)c1ccncc1` [Isoniazid], at CYP2C8 [2] (human), the Ki turned out to be 280 ± 40 µM and the kinact was 0.0006 s⁻¹.

Consider `CC/C(=C(\c1ccccc1)c1ccc(OCCNC)cc1)c1ccccc1` [N-desmethy-ltamoxifen], for which the “kinact (min^−1), Literature” value on CYP3A4 [3] was 0.08 min⁻¹. The Ki at CYP3A4 [3] (read-out: KI (µM), Literature) was 2.6 µM; at CYP3A4 [1] (read-out: KI (µM), Reanalysis, CYP3A4, reanalysis of literature data (refs 37-39) with two-step fit of kobs vs [I]), 2.5 ± 1 µM. For the same molecule, the “kinact (min^−1), Reanalysis” value at CYP3A4 [1] (CYP3A4, reanalysis of literature data (refs 37-39) with two-step fit of kobs vs [I]) was 0.083 ± 0.007 min⁻¹.

Take `CCN1C(=O)C=CC1=O` [NEM, N-ethylmaleimide, reference compound]: the “second-order rate constant for N-ethylmaleimide reaction with cysteine” value in data set [4] is 15,300 M^−1s^−1. Further, at human HDAC8, the IC50 is 700 to 42000 nM, the “Binding / inhibition mechanism classification” value is “unspecific one-step affinity labeling; also recorded: slow inactivation behavior” and the kinact/KI was 133 ± 3 M⁻¹ s⁻¹. Besides, the “rate constant, times lower than that of cysteine” value in [5] is recorded as “more than 100 times”.

For the molecule `CNCCC=C1c2ccccc2CCc2ccccc21` [Nortriptyine], the “kinact (min^−1), Literature” value on CYP2C8 [6] is 0.036 min⁻¹. The Ki on CYP2C8 [6] (read-out: KI (µM), Literature) is 49.9 µM; on CYP2C8 [2] (read-out: KI (µM), Reanalysis, CYP2C8, reanalysis of literature data (ref 36) with two-step fit of kobs vs [I]) it was 66 ± 12 µM. In addition, the “kinact (min^−1), Reanalysis” value at CYP2C8 [2] (CYP2C8, reanalysis of literature data (ref 36) with two-step fit of kobs vs [I]) was found to be 0.044 ± 0.003 min⁻¹.

Regarding `N=C1Sc2ccccc2C2=NCCCN12` [P2742], the IC50 in the data set with HDAC8 [7] (literature value ref 47) was […].

As to `COc1ccc(Cn2ccc3ccc(C(=O)NO)cc32)cc1` [PCI-34051, reference compound], the “Binding / inhibition mechanism classification” value on human HDAC8 is reported as “fast-reversible inhibitors”. The IC50 in the data set with HDAC8 [7] (literature value ref 43) is […].

`NNCCc1ccccc1` [Phenelzine]: on CYP2C8 [2] (human), the Ki turned out to be 0.84 ± 0.24 µM and the kinact was 0.0035 s⁻¹.

Regarding `O=C(CCCCCCC(=O)Nc1ccccc1)NO` [SAHA, suberoylanilide hydroxamic acid, reference compound], on human HDAC8, the “Binding / inhibition mechanism classification” value was “fast-reversible inhibitors”.

As a reminder, the Kd is the free concentration of one partner at which half of the binding sites on the other are occupied at equilibrium, for simple one-to-one binding. With `O=C(CCCCCCC(=O)C(F)(F)F)Nc1ccccc1` [SATFMK], in the data set with HDAC8 [7] (literature value ref 42), the IC50 was 0.021 µM. Also, the Kd at HDAC8 [8] was 5.6 nM.

`COC(=O)c1ccc(/C=C(\C#N)C(=O)C(F)(F)F)cc1` [SVE04]: on human HDAC8, it took 4200 ± 1100 nM to reach half-maximal inhibition (IC50), the Ki came out at 1300 nM and the “Binding / inhibition mechanism classification” value is recorded as “fast reversible HDAC8 inhibitors; also recorded: fast reversible binding”.

For the molecule `COc1ccc(CC(C#N)C(=O)O)cc1` (centres unmarked) [SVE27], on human HDAC8, the midpoint of inhibition, the IC50, lay at 2600 ± 400 nM; the Ki is 800 nM; the “Binding / inhibition mechanism classification” value is “fast reversible HDAC8 inhibitors; also recorded: fast reversible binding”.

Consider `Cc1cc(C)cc(CSc2nc(Cl)ns2)c1` [TJ-19-24], for which, on human HDAC8, the IC50 was in the range of 400 to 4000 nM; the Ki was 5900 ± 800 nM; the “Binding / inhibition mechanism classification” value is listed as “slow two-step inactivators or reversible inhibitors, with a very low reverse isomerization rate; also recorded: slow covalent inactivator; also recorded: slow two-step inactivation”; the kinact was 1 min⁻¹. Besides, at human HDAC8, the kinact/KI is 2820 M⁻¹ s⁻¹.

`Cc1cc(C)cc(CS(=O)(=O)c2nc(Cl)ns2)c1` [TJ-19-28]: at human HDAC8, the IC50 lay within 300 to 3000 nM, the Ki worked out at 12000 ± 3000 nM, the “Binding / inhibition mechanism classification” value is “two-step inactivation mechanism; also recorded: irreversible inactivation mechanism” and the kinact is 1.8 min⁻¹. Also, the kinact/KI at human HDAC8 is 2500 M⁻¹ s⁻¹.

As to `CC(C)CN(C[C@@H](O)[C@H](Cc1ccccc1)NC(=O)O[C@H]1CO[C@H]2OCC[C@H]21)S(=O)(=O)c1ccc(N)cc1` [darunavir], the “residence time (RT)” value in the data set on HIV protease is reported as 247 h.

As to `CC(C)(C)NC(=O)[C@@H]1CN(Cc2cccnc2)CCN1C[C@@H](O)C[C@@H](Cc1ccccc1)C(=O)N[C@H]1c2ccccc2C[C@H]1O` [indinavir], the “residence time (RT)” value in the data set on HIV protease was 0.3 h.
